≈ marks a conversion by molar mass, not a printed value.
Tests used:
P. aeruginosa [1] = test: Antimicrobial tests (MIC/MBC, two-fold serial dilution); format: cell-based, Pseudomonas aeruginosa (ATCC 9037); details: Table 3, n=4
E. coli = test: Antimicrobial tests (MIC, two-fold serial dilution); format: cell-based, E. coli (ATCC 8739); details: Escherichia coli; Table 3; n=4
S. aureus = test: as above; format: cell-based, Staphylococcus aureus (ATCC 6538P); details: Staphylococcus aureus; Table 3; n=4
B. subtilis = test: as above; format: cell-based, Bacillus subtilis (ATCC 6633); details: Bacillus subtilis; Table 3; n=4
P. aeruginosa [2] = test: Selection for resistant bacteria (serial passaging); format: cell-based; details: daily exposure at sub-MIC levels, 30 days; antibiotics: after 10 days
Method: To evaluate if populations of AMP-resistant bacteria could be selected, cultures were continuously exposed to LTX-gallicune-1 (I1N1) and LTX-gallicune-2(R1W8) peptides for a duration of 30 days, as previously described (Oyama et al., 2017 Biofilms Microbiomes, Dec 1;3:33). Briefly, broth microdilution susceptibility testing was performed using a standard doubling-dilution series of gallicune peptides concentrations on day 1. Following incubation of the cultures for 24 h, and determination of the MIC, the well that contained the highest concentration of AMPs permitting growth was diluted 1: 1000 in MH and used to provide the inoculum for the next MIC assay; this process was repeated daily for 30 days.

Compound: Gentamycine
- MIC (P. aeruginosa [1]): 0.3 µM

Compound: CC1(C)S[C@@H]2[C@H](NC(=O)[C@H](N)c3ccc(O)cc3)C(=O)N2[C@H]1C(=O)O [Amoxicilline]
- MIC (E. coli): 9 µM (≈ 3.29 µg/mL)
- MIC (P. aeruginosa [1]; Pseudomonas aeruginosa): > 100 µM
- MIC (S. aureus): 0.9 µM (≈ 0.329 µg/mL)
- MIC (B. subtilis): 0.45 to 0.9 µM (≈ 0.164 to 0.329 µg/mL)

Compound: CO/N=C1\CN(c2nc3c(cc2F)c(=O)c(C(=O)O)cn3C2CC2)CC1CN (stereo not drawn) [Gemifloxacin]
- change of MIC against P. aeruginosa on serial passaging (resistance acquisition) (P. aeruginosa [2]): increasing

Source: patent EP3838286B1, “ANTIMICROBIAL PEPTIDE FROM POLISTES GALLICUS VENOM AND ITS ANALOGS” (Latoxan, priority 2019, dated 2021)
